Test results taken from patent US4495356A, “1,4-Dihydropyridine compound” (Nikken Chemicals Co., Ltd., priority 1982, dated 1985).

Tests used:
[1] = system: hepatic disorder induced by carbon tetrachloride; experiment: Effect on hepatic disorder induced by carbon tetrachloride in rats (Example 5; serum GOT, GPT, bilirubin); assay type: in vivo, SLC-Wistar male rats; conditions: CCl4 0.5 ml/kg i.p., blood 24 hours after CCl4; for Bilirubin in serum: normal 0.12 ± 0.02, no combination compound 0.26 ± 0.02; for GPT in serum: normal 32 ± 3, no combination compound 10606 ± 1952; for GOT in serum: normal 73 ± 5, no combination compound 18228 ± 2032
Procedure: Five rats were used in each test group. The sample compound (i.e., the compound prepared in Example 1) was suspended at a concentration of 40 mg/ml in a 0.1% aqueous solution of Tween-80. Alpha-tocopherol was dissolved at a concentration of 40 mg/ml in an olive oil. This solution was administered orally at a dose of 200 mg/kg each for 2 days. Glutathione was dissolved at a concentration of 100 mg/ml in a 0.1% aqueous solution of Tween-80. This solution was orally administered at a dose of 500 mg/kg for 2 days. Carbon tetrachloride was intraperitoneally administered as a 10% olive oil solution at a dose of 5 ml/kg (0.5 ml/kg in terms of CCl4) one hour after the final administration of the sample compound. Blood samples were collected from the carotid artery under pentobarbital anesthesia, 24 hours after the administration of carbon tetrachloride. […] The determination of GOT and GPT in serum was carried out according to a UV method and the determination of bilirubin was carried out according to a diazo method.

[2] = system: hepatic disorder induced by carbon tetrachloride; experiment: Effect on hepatic disorder induced by carbon tetrachloride in rats (Examples 6 and 7; serum GOT, GPT, bilirubin); assay type: in vivo, SLC-Wistar male rats; conditions: CCl4 0.5 ml/kg i.p., 200 mg/kg orally for 2 days, blood 24 hours after CCl4; for Bilirubin in serum: normal 0.10 ± 0.00, no combination compound 0.24 ± 0.02; for GPT in serum: normal 46 ± 6, no combination compound 10266 ± 818; for GOT in serum: normal 97 ± 10, no combination compound 16650 ± 1636
Procedure: The effects of the sample compounds on hepatic disorders were evaluated by determining the levels of GOT, GPT, and bilirubin […] in serum, after administering carbon tetrachloride and the sample compound to SLC-Wistar male rats (10 week age and body weight of 240 to 270 g) as follows.
Five rats were used in each test group. The sample compounds (i.e., the compounds prepared in Examples 2 and 3) were suspended at a concentration of 40 mg/ml in a 0.1% aqueous solution of Tween-80. Alpha-tocopherol was dissolved at a concentration of 40 mg/ml in olive oil. This solution was administered orally at a dose of 200 mg/kg each for 2 days. Glutathione was dissolved at a concentration of 100 mg/ml in a 0.1% aqueous solution of Tween-80. This solution was orally administered at a dose of 500 mg/kg for 2 days. Carbon tetrachloride was intraperitoneally administered as a 10% olive oil solution at a dose of 5 ml/kg (0.5 ml/kg in terms of CCl4) one hour after the final administration of each sample compound.
Blood sampels were collected from the carotid artery under pentobarbital anesthesia, 24 hours after the administration of carbon tetrachloride. The rats were fasted for 18 to 20 hours before collecting of a blood sample.
(§1) The determination of GOT and GPT in serum was carried out according to a UV method and the determination of bilirubin was carried out according to a diazo method.

[3] = system: liver disorder induced by D-galactosamine; experiment: Effect on liver disorder induced by D-galactosamine in rats (serum GOT, GPT, bilirubin); assay type: in vivo, Wistar-Imamichi male rats; conditions: D-galactosamine 400 mg/kg i.p., 200 mg/kg orally for 2 days, blood 24 hours after D-galactosamine; for Bilirubin in serum: normal 0.12 ± 0.02, no combination compound 0.43 ± 0.06; for GPT in serum: normal 15 ± 1, no combination compound 2195 ± 460; for GOT in serum: normal 97 ± 3, no combination compound 6170 ± 1507
Procedure: Effect of 3,5-diethoxycarbonyl-4-[2'-(5',6'-dihydro-p-dioxinyl)]-2,6-dimethyl-1,4-dihydropyridine (compound of Example 1) on liver disorder induced by D-galactosamine.
The effect of the sample compound to be tested on hepatic disorder was evaluated by determining the levels of GOT, GPT and bilirubin, which are known as an indicator of hepatic disorder, in serum, after administering D-galactosamine hydrochloride and the sample compound to Wistar-Imamichi male rats (8 week age and body weight of 260 to 280 g) as follows.
Five rats were used in each test group. The sample compound (i.e., the compound prepared in Example 1) was suspended at a concentration of 40 mg/ml in a 0.1% aqueous solution of Tween-80 (Trademark of surfactant available from Atlas Chemical Corp.). Alpha-tocopherol was dissolved at a concentration of 40 mg/ml in olive oil. This solution was administered orally at a dose of 200 mg/kg each for 2 days (25 and 1 hours before the administration of D-galactosamine). D-galactosamine was dissolved at a concentration of 100 mg/ml in a Physiological saline and this solution was administered intraperitoneally at a single dose of 400 mg/kg one hour after the final administration of the sample compound.
Blood samples were collected from the carotid artery under pentobarbital anesthesia, 24 hours after the administration of D-galactosamine. The rats were fasted for 18 to 20 hours before collecting of blood sample.
as §1

in vivo = conditions: rat, oral, rats 5 week age, observed for 3 days
[4] = glutathione 500 mg/kg orally for 2 days

| Structure (SMILES) | Bilirubin in serum [1, 4] | GPT in serum [1, 4] | GOT in serum [1, 4] | Bilirubin in serum [2] | GPT in serum [2] | GOT in serum [2] | Bilirubin in serum [3] | GPT in serum [3] | GOT in serum [3] | Bilirubin in serum ([1]; 200 mg/kg orally for 2 days) | GPT in serum ([1]; 200 mg/kg orally for 2 days) | GOT in serum ([1]; 200 mg/kg orally for 2 days) | LD50 at 72 h (in vivo) |
| --- | --- | --- | --- | --- | --- | --- | --- | --- | --- | --- | --- | --- | --- |
| N[C@@H](CCC(=O)N[C@@H](CS)C(=O)NCC(=O)O)C(=O)O [glutathione] | 0.22 ± 0.02 mg/dL | 7722 ± 1170 KU | 11272 ± 1904 KU |  |  |  |  |  |  |  |  |  |  |
| COC(=O)C1=C(C)NC(C)=C(C(=O)OC)C1C1=COCCO1 [Example 3, 3,5-dimethoxycarbonyl-4-2'-(5',6'-dihydro-p-dioxinyl)-2,6-dimethyl-1,4-dihydropyridine] |  |  |  | 0.14 ± 0.02 mg/dL | 680 ± 107 KU | 901 ± 127 KU |  |  |  |  |  |  |  |
| Cc1c(C)c2c(c(C)c1O)CCC(C)(CCCC(C)CCCC(C)CCCC(C)C)O2 (stereo not drawn) [alpha-tocopherol, reference compound] |  |  |  | 0.26 ± 0.04 mg/dL | 9106 ± 591 KU | 14558 ± 1049 KU | 0.26 ± 0.02 mg/dL | 1043 ± 189 KU | 3065 ± 440 KU | 0.18 ± 0.02 mg/dL | 5764 ± 1564 KU | 5662 ± 793 KU |  |
| CCOC(=O)C1=C(C)NC(C)=C(C(=O)OCC)C1C1=COCCO1 [Example 1, 3,5-diethoxycarbonyl-4-[2'-(5',6'-dihydro-p-dioxinyl)]-2,6-dimethyl-1,4-dihydropyridine] |  |  |  |  |  |  | 0.30 ± 0.06 mg/dL | 862 ± 373 KU | 2194 ± 777 KU | 0.14 ± 0.02 mg/dL | 1396 ± 290 KU | 1800 ± 321 KU | ~2000 mg/kg |
| CCCOC(=O)C1=C(C)NC(C)=C(C(=O)OCCC)C1C1=COCCO1 [Example 2, 3,5-di-n-propyloxycarbonyl-4-[2'-(5',6'-dihydro-p-dioxynyl)]-2,6-dimethyl-1,4-dihydropyridine] |  |  |  | 0.13 ± 0.03 mg/dL | 1443 ± 228 KU | 2456 ± 734 KU |  |  |  |  |  |  | ≥ 2000 mg/kg |
